≈ marks a conversion by molar mass, not a printed value.
Columns and labels:
[1] = system: Rattus norvegicus; test: Antimuricide effect was observed in the olfactory bulb removed rats; antimuricide effect at 30 mg/kg; + = 31 - 50%; assay type: functional
[2] = system: Mus musculus; test: Muscle relaxant effect was measured as ED50 which is the dose that causes muscle relaxation in 50% of the mice, po; assay type: functional
[3] = species on record: Cavia porcellus; test: Concentration required to reducing the histamine induced contraction by 50% was measured; assay type: functional
[4] = system: Mus musculus; test: Antiphysostigmine effect was measured as ED50,po; assay type: functional
[5] = species on record: Mus musculus; test: Ability to prevent the reserpine induced hypothermia in mice relative to amitriptyline; assay type: functional
[6] = Toxicity was measured as LD50,po; assay type: organism-based; conditions: mouse, in vivo
[7] = system: Mus musculus; test: The compound was tested for it's ability to reverse the reserpine induced hypothermia in mice, po; assay type: functional
[8] = system: Rattus norvegicus; test: Antimuricide effect was observed in the olfactory bulb removed rats; antimuricide effect at 30 mg/kg; ++ = 51-70%; assay type: functional
[9] = species on record: Mus musculus; test: The compound was tested for it's ability to prevent the reserpine induced hypothermia in mice; assay type: functional
[10] = species on record: Mus musculus; test: The compound was tested for it's ability to reverse the reserpine induced hypothermia in mice; assay type: functional
[11] = system: Rattus norvegicus; test: Antimuricide effect was observed in the olfactory bulb removed rats; antimuricide effect at 30 mg/kg; + = 31-50%; assay type: functional
[12] = system: Rattus norvegicus; test: Antimuricide effect was observed in the olfactory bulb removed rats; antimuricide effect at 30 mg/kg; ++ = 51 - 70%; assay type: functional

SMILES	Relative potency [5]	also measured
CN(C)CCC=C1c2ccccc2CCc2ccccc21 [AMITRIPTYLINE]	5.8	Effect [1]: 31%; ED50 [2]: 40 mg/kg; IC50 [3]: 0.0083 µg/mL (≈ 0.0299 µM); ED50 [4]: 35 mg/kg; LD50 [6]: 300 mg/kg
CN(C)CCCCOc1ccccc1Sc1ccccc1.Cl	0.7	
CCNCCCOc1ccccc1Cc1ccccc1.Cl	0	
CN(C)CCCCOc1ccc(Cl)cc1Cc1ccccc1.Cl	0.26	
CNCCCCOc1ccccc1Cc1ccc(C)cc1.Cl	0.44	
CN(C)CCCCCOc1ccccc1Cc1ccccc1.Cl	0.23	
Cl.c1ccc(Cc2ccccc2OCCCCN2CCOCC2)cc1	0.3	
CNCCCCOc1ccccc1C(C)c1ccccc1.Cl (stereo not given)	0.66	
CNCCCCOc1ccc(O)cc1Cc1ccccc1.Cl	0.31	
CN(C)CCCN1c2ccccc2CCc2ccccc21 [IMIPRAMINE]		Effect [1]: 31%; ED50 [2]: 190 mg/kg; IC50 [3]: 0.032 µg/mL (≈ 0.114 µM); ED50 [4]: 120 mg/kg
Cc1cccc(Cc2ccccc2)c1OCCCCN(C)C.Cl	0.66	
CNCCCCOc1ccccc1Oc1ccccc1.Cl	1.1	ED50 [2]: > 200 mg/kg; ED10 [7]: 8.8 mg/kg; IC50 [3]: 1.6 µg/mL; ED50 [4]: > 200 mg/kg; Effect [8]: 51%; LD50 [6]: 600 mg/kg
CNCCCCOc1ccccc1CCc1ccccc1.Cl	0	
CN(C)CCCCOc1ccccc1Cc1ccc(Cl)cc1.Cl	0.17	
CN(C)CCOc1ccccc1Cc1ccccc1.Cl	0	IC50 [3]: 0.001 µg/mL
Cl.NCCCCOc1ccccc1Cc1ccccc1	0	
CN(C)CCCCOc1ccccc1Cc1ccccc1O.Cl	0.77	
CNCCCCOc1ccccc1Nc1ccccc1.Cl		Relative potency [9]: 0.29
CNCCCCOc1ccccc1C1CCCCC1.Cl	0.28	
CN1CCN(CCCCOc2ccccc2Cc2ccccc2)CC1.Cl	0	
CN(C)CCCCOc1ccccc1Cc1ccccc1.Cl	0	
CNCCCCOc1ccc(Cl)cc1Cc1ccccc1.Cl	0.17	
Cc1ccc(Cc2ccccc2OCCCCN(C)C)cc1.Cl	0.18	
CNCCCCOc1ccccc1Cc1ccccc1.Cl	0.78	ED50 [2]: > 200 mg/kg; IC50 [3]: 1.1 µg/mL; ED50 [4]: > 200 mg/kg; ED10 [10]: 12.5 mg/kg; LD50 [6]: 1000 mg/kg

SMILES	Relative potency [5]	also measured
CNCCCCOc1ccccc1Sc1ccccc1.Cl	0.89	Effect [11]: 31%; ED50 [2]: > 200 mg/kg; ED10 [7]: 15 mg/kg; IC50 [3]: 2.2 µg/mL; ED50 [4]: > 200 mg/kg; LD50 [6]: 980 mg/kg
CN(C)CCCOc1ccccc1Cc1ccccc1.Cl	0	
CNCCCCOc1ccccc1Cc1ccc(Cl)cc1.Cl	0.27	
CNCCCCOc1ccc(Cc2ccccc2)cc1.Cl	0	
CNCCCCOc1ccccc1Cc1ccccc1OC.Cl	0.85	
CNCCCCOc1ccccc1S(=O)(=O)c1ccccc1.Cl	0.17	
COc1ccc(Cc2ccccc2OCCCCN(C)C)cc1.Cl	0	
CC(c1ccccc1)c1ccccc1OCCCCN(C)C.Cl (stereo not given)	0.36	
CCOc1ccccc1OCCCCNC.Cl	0	
CNCCCCOc1ccccc1OCc1ccccc1.Cl	0	
Cl.c1ccc(Cc2ccccc2OCCCCN2CCCCC2)cc1	0.41	
CCNCCCCOc1ccccc1Cc1ccccc1.Cl	0.53	
CNCCCCOc1ccccc1Cc1ccccc1O.Cl	0.99	Effect [12]: 51%; ED50 [2]: > 200 mg/kg; IC50 [3]: 2.5 µg/mL; ED50 [4]: > 200 mg/kg; ED10 [10]: 15 mg/kg; LD50 [6]: 750 mg/kg
CN(C)CCCCOc1ccccc1Oc1ccccc1.Cl	0.58	
CNCCCCOc1ccccc1C(O)c1ccccc1.Cl (stereo not given)	0	
CNCCCCOc1ccc(OC)cc1.Cl	0	
CNCCCCOc1ccccc1Cc1ccc(OC)cc1.Cl	0	
CNCCCCOc1ccccc1Cl.Cl	0	
CN(C)CCCCOc1ccccc1Cl.Cl	0.47	
CNCCCCCOc1ccccc1Cc1ccccc1.Cl	0.57	
CNCCCCOc1ccccc1[S+]([O-])c1ccccc1.Cl (stereo not given)	0.49	
CNCCCCOc1ccccc1C(=O)c1ccccc1.Cl	0	
CNCCOc1ccccc1Cc1ccccc1.Cl	0	
CNCCCCOc1ccccc1C(=O)Nc1ccccc1.Cl	0.36	

Reference: ChEMBL document CHEMBL1121777, “Synthesis and antidepressant activity of substituted (omega-aminoalkoxy)benzene derivatives” (J Med Chem, 1981)
